From the NIST ThermoML archive (doi:10.1021/je2007549)

Assay: xn = mol fraction of the nth substance listed
Settings: 101 kPa, Liquid; for electrical conductivity: Direct current cell with electrodes; for viscosity: Falling or rolling sphere viscometry; for mass density: Vibrating tube method

CCCC[P+](CCCC)(CCCC)CCCN.C[C@H](N)C(=O)[O-] [(3-aminopropyl)tributylphosphonium L-alaninate] + O
Settings	electrical conductivity [S/m]	mass density [kg/m3]	viscosity [mPa·s]
298.15 K, x2 = 0	0.0141	986.75	804.88
298.15 K, x2 = 0.25	0.0244	988.47	597.85
298.15 K, x2 = 0.5	0.0337	991.4	429.73
298.15 K, x2 = 0.75	0.0647	999.98	208.66
303.15 K, x2 = 0	0.0209	983.72	561.4
303.15 K, x2 = 0.25	0.032	985.39	417.93
303.15 K, x2 = 0.5	0.0439	988.27	304.2
303.15 K, x2 = 0.75	0.0859	996.76	150.37
313.15 K, x2 = 0	0.032	977.65	291.07
313.15 K, x2 = 0.25	0.0487	979.18	222.26
313.15 K, x2 = 0.5	0.0703	982.01	163.31
313.15 K, x2 = 0.75	0.134	990.22	83.45
323.15 K, x2 = 0	0.0464	971.62	164.61
323.15 K, x2 = 0.25	0.0727	973.04	127.07
323.15 K, x2 = 0.5	0.105	975.81	95.01
323.15 K, x2 = 0.75	0.195	983.57	50.38
333.15 K, x2 = 0	0.0649	965.71	106.7
333.15 K, x2 = 0.25	0.101	966.97	78.92
333.15 K, x2 = 0.5	0.147	969.57	59.3
333.15 K, x2 = 0.75	0.265	976.99	32.59
343.15 K, x2 = 0	0.0884	959.97	65.96
343.15 K, x2 = 0.25	0.142	960.89	53.07
343.15 K, x2 = 0.5	0.193	963.3	39.29
343.15 K, x2 = 0.75	0.334	970.15	22.27

CC(C)C[C@H](N)C(=O)[O-].CCCC[P+](CCCC)(CCCC)CCCN [(3-aminopropyl)tributylphosphonium L-leucinate] + O
Settings	electrical conductivity [S/m]	mass density [kg/m3]	viscosity [mPa·s]
298.15 K, x2 = 0	0.008	971.86	1227.9
298.15 K, x2 = 0.25	0.0114	973.97	920.24
298.15 K, x2 = 0.5	0.0173	978.04	599.52
298.15 K, x2 = 0.75	0.0395	987.11	244.81
303.15 K, x2 = 0	0.0108	968.8	855.26
303.15 K, x2 = 0.25	0.0154	970.91	629.98
303.15 K, x2 = 0.5	0.0232	974.9	407.91
303.15 K, x2 = 0.75	0.0515	983.89	174.05
313.15 K, x2 = 0	0.0185	962.68	417.9
313.15 K, x2 = 0.25	0.0254	964.75	308.75
313.15 K, x2 = 0.5	0.0362	968.61	209.07
313.15 K, x2 = 0.75	0.0795	977.44	94.21
323.15 K, x2 = 0	0.0291	956.54	224.29
323.15 K, x2 = 0.25	0.0379	958.56	169.8
323.15 K, x2 = 0.5	0.0515	962.52	116.62
323.15 K, x2 = 0.75	0.116	970.88	55.71
333.15 K, x2 = 0	0.0414	950.54	130.46
333.15 K, x2 = 0.25	0.0542	952.54	101.73
333.15 K, x2 = 0.5	0.0735	956.26	72.42
333.15 K, x2 = 0.75	0.161	964.27	35.35
343.15 K, x2 = 0	0.0605	944.58	81.01
343.15 K, x2 = 0.25	0.0761	946.54	65.08
343.15 K, x2 = 0.5	0.104	949.99	47.47
343.15 K, x2 = 0.75	0.214	957.61	23.97
